Measurements published in ChEMBL document CHEMBL5154834, “Anti-neuroinflammatory effects of novel 5,6-dihydrobenzo[h]quinazolin-2-amine derivatives in lipopolysaccharide-stimulated BV2 microglial cells” (Eur J Med Chem, 2022).

Columns and labels:
[1] = Cytotoxicity against mouse BV-2 cells assessed as survival rate at 2.5 ug/ml incubated for 24 hrs by MTT assay; type: toxicity, cell-based; conditions: at 2.5 µg/mL, read-out: Activity
BV-2 [2] = assay: Anti-neuroinflammatory activity in mouse BV-2 cells assessed as inhibition of LPS-stimulated TNF-alpha production at 2.5 ug/ml measured after 24 hrs by ELISA; type: functional; parameters: scale not given: the % may be the effect or the level left; conditions: dose 2.5 µg/ml
BV-2 [3] = assay: Anti-neuroinflammatory activity in mouse BV-2 cells assessed as inhibition of LPS-stimulated IL-6 production at 2.5 ug/ml measured after 24 hrs by ELISA; type: functional; parameters: scale not given: the % may be the effect or the level left; conditions: dose 2.5 µg/ml
BV-2 [4] = assay: Anti-neuroinflammatory activity in mouse BV-2 cells assessed as reduction of LPS-stimulated IkappaBalpha phosphorylation level at 1.25 to 5 ug/ml and measured after 24 hrs by westernblot analysis; type: functional, cell-based; conditions: dose 1.25-5 µg/ml, DDE = dose-dependent effect
BV-2 [5] = assay: Anti-neuroinflammatory activity in mouse BV-2 cells assessed as inhibition of LPS-induced NLRP3 expression level at 1.25 to 5 ug/ml and measured after 24 hrs by western blot analysis; type: functional, cell-based; conditions: dose 1.25-5 µg/ml, DDE = dose-dependent effect
BV-2 [6] = assay: Anti-neuroinflammatory activity in mouse BV-2 cells assessed as inhibition of LPS-induced ASC expression level at 1.25 to 5 ug/ml and measured after 24 hrs by western blot analysis; type: functional, cell-based; conditions: dose 1.25-5 µg/ml, DDE = dose-dependent effect
BV-2 [7] = assay: Anti-neuroinflammatory activity in mouse BV-2 cells assessed as inhibition of LPS-induced caspase-1 expression level at 1.25 to 5 ug/ml and measured after 24 hrs by western blot analysis; type: functional, cell-based; conditions: dose 1.25-5 µg/ml, DDE = dose-dependent effect
BV-2 [8] = assay: Neuroprotective activity against LPS-induced mouse BV-2 cell death assessed as reversal of apoptosis at 2.5 uM and measured after 24 hrs by Annexin V-FITC/PI staining based flow cytometry method (reference value: 91.6%); type: functional
BV-2 [9] = assay: Neuroprotective activity against LPS-induced mouse BV-2 cell death assessed as late apoptotic cells at 2.5 uM and measured after 24 hrs by Annexin V-FITC/PI staining based flow cytometry method (reference value: 0%); type: functional
BV-2 [10] = assay: Neuroprotective activity against LPS-induced mouse BV-2 cell death assessed as reversal of apoptosis at 5 uM and measured after 24 hrs by Annexin V-FITC/PI staining based flow cytometry method (reference value: 91.6%); type: functional
BV-2 [11] = assay: Neuroprotective activity against LPS-induced mouse BV-2 cell death assessed as late apoptotic cells at 5 uM and measured after 24 hrs by Annexin V-FITC/PI staining based flow cytometry method (reference value: 0%); type: functional

Structure (SMILES) | viability at 24 h, 2.5 ug/ml [1] [%] | Activity (BV-2 [2]) [%] | Activity (BV-2 [3]) [%] | other results
COc1ccc2c(c1)C(=O)/C(=C/c1cccc(OC)n1)CC2 | 90.4 | 40.6 | 54 | –
COc1ccc(/C=C2\CCc3ccc(F)cc3C2=O)cc1C(F)(F)F | 94.7 | 38.6 | 42.3 | –
COc1cccc(-c2nc(N)nc3c2CCc2ccc(F)cc2-3)c1 | 95 | 53.8 | 66.6 | –
COc1cc(/C=C2\CCc3ccc(F)cc3C2=O)cc(OC)c1 | 87.8 | 40.8 | 46.1 | –
COc1cccc(-c2nc(N)nc3c2CCc2ccc(Br)cc2-3)n1 | 88.9 | 44.8 | 55.8 | –
COc1ccc2c(c1)C(=O)/C(=C/c1ccc(OC)c(C(F)(F)F)c1)CC2 | 94.4 | 32.8 | 44.4 | –
COc1cc(/C=C2\CCc3ccc(Br)cc3C2=O)cc(OC)c1OC | 93.5 | 33.1 | 35.9 | –
COc1ccc2c(c1)-c1nc(N)nc(-c3ccc(OC)c(C(F)(F)F)c3)c1CC2 | 90.3 | 46.7 | 44.2 | –
COc1cccc(/C=C2\CCc3ccc(Br)cc3C2=O)n1 | 94.7 | 31.9 | 44.9 | –
COc1cncc(/C=C2\CCc3ccc(Br)cc3C2=O)c1 | 94.9 | 35.9 | 47 | –
COc1ccc(-c2nc(N)nc3c2CCc2ccc(F)cc2-3)cc1C(F)(F)F | 91 | 42.4 | 43 | –
COc1ccc2c(c1)-c1nc(N)nc(-c3ccc(OC)nc3)c1CC2 | 87.5 | 42.7 | 43.7 | –
COc1ccc(/C=C2\CCc3ccc(F)cc3C2=O)cn1 | 92.7 | 34.3 | 47 | –
COc1cc(-c2nc(N)nc3c2CCc2ccc(Br)cc2-3)cc(OC)c1OC | 93.1 | 39.9 | 43.7 | –
COc1cccc(/C=C2\CCc3ccc(F)cc3C2=O)c1 | 90.3 | 34 | 35.2 | –
COc1cncc(-c2nc(N)nc3c2CCc2ccc(OC)cc2-3)c1 | 94.7 | 47.3 | 53.8 | –

Structure (SMILES) | viability at 24 h, 2.5 ug/ml [1] [%] | Activity (BV-2 [2]) [%] | Activity (BV-2 [3]) [%] | other results
COc1ccc2c(c1)-c1nc(N)nc(-c3cccc(OC)n3)c1CC2 | 94.8 | 44.9 | 44.1 | –
COc1cc(OC)cc(-c2nc(N)nc3c2CCc2ccc(F)cc2-3)c1 | 95.4 | 45.3 | 51.7 | –
COc1ccc(-c2nc(N)nc3c2CCc2ccc(F)cc2-3)cn1 | 89.6 | 43.3 | 43.9 | –
COc1cncc(-c2nc(N)nc3c2CCc2ccc(Br)cc2-3)c1 | 93.2 | 49.4 | 43.3 | –
COc1cccc(/C=C2\CCc3ccc(F)cc3C2=O)n1 | 85.8 | 41.7 | 61.1 | –
COc1ccc2c(c1)C(=O)/C(=C/c1ccc(OC)nc1)CC2 | 93.1 | 23.8 | 45 | –
S=C(S)N1CCCC1 [PYRROLIDINE DITHIOCARBAMATE] | – | 55.9 | 64 | –
COc1cncc(/C=C2\CCc3ccc(F)cc3C2=O)c1 | 94.4 | 33.3 | 46.4 | –
COc1cncc(/C=C2\CCc3ccc(OC)cc3C2=O)c1 | 92.3 | 29.7 | 43.7 | –
COc1cncc(-c2nc(N)nc3c2CCc2ccc(F)cc2-3)c1 | 97.4 | 60.8 | 80.2 | Activity (BV-2 [4]): Dde; Activity (BV-2 [5]): Dde; Activity (BV-2 [6]): Dde; Activity (BV-2 [7]): Dde; Activity (BV-2 [8]): 54.8%; Activity (BV-2 [9]): 30.7%; Activity (BV-2 [10]): 70.7%; Activity (BV-2 [11]): 13%
COc1ccc(-c2nc(N)nc3c2CCc2ccc(Br)cc2-3)cn1 | 95.4 | 43.8 | 40.6 | –
COc1ccc2c(c1)C(=O)/C(=C/c1ccc(OC)cc1C(F)(F)F)CC2 | 88.3 | 40 | 44.9 | –
COc1cccc(-c2nc(N)nc3c2CCc2ccc(F)cc2-3)n1 | 95.4 | 50.3 | 66.9 | –
COc1ccc2c(c1)-c1nc(N)nc(-c3ccc(OC)cc3C(F)(F)F)c1CC2 | 89.9 | 38.2 | 54.3 | –
COc1ccc(/C=C2\CCc3ccc(Br)cc3C2=O)cn1 | 89.5 | 32.5 | 45.5 | –
